Publication PMC9612231, “Antileishmanial Anthracene Endoperoxides: Efficacy In Vitro, Mechanisms and Structure-Activity Relationships” (Molecules, 2022)

Tests used:
[1] = system: LtP, axenic Leishmania tarentolae amastigotes and Leishmania donovani promastigotes; design: method as in PMID 29996524; details: read-out: IC50 in viability tests; cited from earlier work
J774 macrophages = experiment: Resazurin viability assay for J774 macrophages; format: cell-based, murine; details: Mus musculus, J774, 48 h, read-out: J774 IC50, resazurin viability, endpoint 48 h, 10^5 J774 cells/mL, mean ± SD of 4–8 experiments
Description: (§1) The influence of AcEP and their analogs (Ac) on the viability of cells was tested in Leishmania tarentolae promastigotes (LtP) and J774 macrophages (Table 2). Based on the changes of viability of the respective cell lines at different compound concentrations, IC50 values were calculated. In Table 2, the IC50 values in both cell lines were compared for the individual compounds. From the ratio of IC50 values in J774 macrophages to IC50 values in LtP, an in vitro selectivity was calculated.
The murine macrophage cell line J774A.1 (ATCC, TIB-67™, Wesel, Germany) was cultivated up to passage 30 in DMEM (high glucose, 3.7 g/L NaHCO3, pH 7.4) with 25,000 IU/L penicillin, 25 mg/L streptomycin, and 10% FCS (heat-inactivated) in 50 mL TubeSpin bioreactors. J774 cells were incubated at 37 °C and 5% CO2 on a roller culture apparatus (5 rpm) in a Heraeus Cytoperm 8080 incubator (Thermo Electron Corp., Vienna, Austria). To determine the cell count, the cell suspension was re-suspended and diluted 1:2 with phosphate-buffered saline (PBS): 137 mM NaCl, 1.4 mM KH2PO4, 4.3 mM Na2HPO4, and 2.7 mM KCl, pH 7.4. After fixation of the cells by mixing the cell suspension 1:1 with a formaldehyde solution (2%, v/v), aliquots of the resulting suspension were transferred into a standard Neubauer chamber (VWR, Austria) and counted manually using a light microscope (Motic BA310, Vienna, Austria) at a magnification of 40 times. J774 cells were passaged twice a week in a ratio of 1:10.
DMEM containing 25,000 U/L penicillin, 25 mg/L streptomycin, 10% FCS, and 1 × 10^5 J774/mL was prepared. This mixture (200 µL) was distributed in cell culture-treated 96-well plates, except the control wells which contained only DMEM. The cells were incubated for 24 h at 37 °C and 5% CO2 to allow attachment. Afterwards the medium and non-adherent cells were removed by washing with PBS, and then, 200 µL DMEM was added to attached cells. Compounds dissolved in DMSO were added in starting concentrations of 25 µM (Pen) or 200 µM (AcEP/Ac), and then, serial dilutions were carried out resulting in the same concentration steps as listed for LtP. For each compound concentration triplicates on each plate were performed. […], 50 µL of resazurin solution (final concentration 20 µM) was added, and after 4 h of incubation, the fluorescence was measured at 560 nm excitation and 590 nm emission using a plate reader (Perkin Elmer EnSpire, Rodgau, Germany). All tests were repeated at least on four different weeks of cultivation.
(§2) Calculations were carried out using Microsoft Excel 2016 (Microsoft). The graphs were created using Origin 6.1 (OriginLab Corporation, Northampton, MA, USA). For all groups of experimental data, mean and standard deviation (SD) were calculated. Statistically significant differences between groups of sample data were identified by unpaired two-tailed Student’s t-test. Differences on the level of p < 0.05 were considered significant. The number of replicates is indicated at the respective figures/tables. The half-maximal inhibitory concentrations (IC50) were determined from non-linear concentration-response curves using a four-parameter logistic model and expressed as the mean ± SD.

[2] = system: Leishmania tarentolae promastigotes (LtP); experiment: Resazurin viability assay for LtP; format: cell-based; details: Leishmania tarentolae, 48 h, read-out: LtP IC50
Description: as §1
LtP (strain P10 from Jena Bioscience, Jena, Germany) were cultivated according to manufacturer instructions up to passage 50 in brain heart infusion medium (37 g/L, pH 7.4) and supplemented with 5 mg/L hemin and 25,000 IU/L penicillin and 25 mg/L streptomycin in 50 mL TubeSpin bioreactors (TPP, Trasadingen. Switzerland). LtP were grown at 27 °C in an incubator (Ehret, Emmendingen, Germany) and agitated at a frequency of 0.05 s^−1. […] For experiments, LtP were used one day after passage. The cell number was calculated by measuring the optical density (OD) of the culture at 600 nm with a U-1100 photometer (Hitachi Ltd., Tokyo, Japan) and applying the formula × 10^6 cells/mL = OD600nm × 0.969 × 124 × dilution factor [53].
Assay medium of YEM (20.7 g/L yeast extract powder, 1.2 g/L K2HPO4, 0.2 g/L KH2PO4, 2.9 g/L glucose, pH 7.4) and PBS (1:1, v/v), 25,000 U/L penicillin, 25 mg/L streptomycin, and 7.7 µM hemin was prepared. Aliquots of 200 µL of this medium and 2 × 10^6 LtP/mL (where required) were distributed in non-treated cell culture 96-well plates. Compounds (dissolved in DMSO) were added with starting concentrations of 25 µM (Pen) or 200 µM (AcEP/Ac), and then, serial dilutions were carried out resulting in a set of concentrations (25, 5, 1, 0.2, 0.04, and 0.008 µM) or (200, 40, 8, 1.6, 0.32, and 0.064 µM). For each compound concentration, at least triplicates on each plate were performed. After incubation of the plates at 27 °C for 48 h, 50 µL of resazurin solution (final concentration in wells 20 µM) was added to each well and after 4 h of incubation, the fluorescence was measured at 560 nm excitation and 590 nm emission using a plate reader (Perkin Elmer EnSpire, Rodgau, Germany) (adapted from). Combination assays for viability in the presence of PIH and NAC were performed the same way. […] All tests were repeated at least on four different weeks of cultivation.
as §2

IC50 [2] [µM]	Compound	IC50 [1] [µM]	IC50 (J774 macrophages) [µM]
> 200	c1ccc2cc3ccccc3cc2c1 [Ac, anthracene]	> 100	> 200
–	O=C1c2ccccc2C(=O)c2ccccc21 [anthraquinone, reference compound]	> 100	–
